From ChEMBL document CHEMBL3397018, “Discovery of phenylpiperazine derivatives as IGF-1R inhibitor with potent antiproliferative properties in vitro” (Bioorg Med Chem Lett, 2015)
pIC50: −log10 of the molar value. Active and inactive are the calls of the source. The rule behind the calls is not given here.

What was measured:
[1] = Antiproliferative activity against human SGC7901 cells after 48 hrs by MTT assay; settings: SGC-7901, 48 h
[2] = Antiproliferative activity against human SMMC7721 cells after 48 hrs by MTT assay; settings: SMMC-7721, 48 h
MCF7 [3] = experiment: cells; settings: Homo sapiens, MCF7, 48 h
cells = settings: Homo sapiens, LS174T, 48 h
Description: Antiproliferative activity against human LS 174T cells after 48 hrs by MTT assay

[4] = Cytotoxicity against human QSG7701 cells after 72 hrs by MTT assay; assay type: cell-based
MCF7 [5] = experiment: Induction of apoptosis in human MCF7 cells after 24 hrs by DNA ladder detection based method; assay type: functional, cell-based
[6] = molecular target: Insulin-like growth factor 1 receptor (Homo sapiens, UniProt P08069); experiment: Inhibition of NH2-terminal glutathione S-transferase fused human recombinant IGF-IR catalytic domain expressed in insect cells using poly(Glu:Tyr) substrate by ELISA-based assay
Insulin-like growth factor 1 receptor, sequence (P08069 31-736 limits assumed): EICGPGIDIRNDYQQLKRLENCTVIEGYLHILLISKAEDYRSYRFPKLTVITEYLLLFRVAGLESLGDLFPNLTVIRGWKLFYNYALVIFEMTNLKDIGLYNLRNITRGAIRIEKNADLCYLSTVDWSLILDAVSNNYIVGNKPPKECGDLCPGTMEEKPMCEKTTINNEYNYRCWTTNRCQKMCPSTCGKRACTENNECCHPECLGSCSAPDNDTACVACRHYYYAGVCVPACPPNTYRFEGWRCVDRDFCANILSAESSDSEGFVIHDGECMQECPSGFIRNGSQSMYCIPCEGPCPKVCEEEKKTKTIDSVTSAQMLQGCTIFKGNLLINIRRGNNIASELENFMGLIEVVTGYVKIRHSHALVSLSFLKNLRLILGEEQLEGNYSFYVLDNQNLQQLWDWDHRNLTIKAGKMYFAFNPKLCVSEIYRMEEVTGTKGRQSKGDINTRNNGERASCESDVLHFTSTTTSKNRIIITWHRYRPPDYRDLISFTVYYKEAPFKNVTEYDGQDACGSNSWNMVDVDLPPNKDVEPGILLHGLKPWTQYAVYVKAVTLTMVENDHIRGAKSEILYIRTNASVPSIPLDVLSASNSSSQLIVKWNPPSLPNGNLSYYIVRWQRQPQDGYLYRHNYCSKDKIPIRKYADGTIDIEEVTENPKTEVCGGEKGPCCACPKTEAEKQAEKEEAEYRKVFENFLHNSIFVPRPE
Insulin-like growth factor 1 receptor, sequence (P08069 741-1367 limits assumed): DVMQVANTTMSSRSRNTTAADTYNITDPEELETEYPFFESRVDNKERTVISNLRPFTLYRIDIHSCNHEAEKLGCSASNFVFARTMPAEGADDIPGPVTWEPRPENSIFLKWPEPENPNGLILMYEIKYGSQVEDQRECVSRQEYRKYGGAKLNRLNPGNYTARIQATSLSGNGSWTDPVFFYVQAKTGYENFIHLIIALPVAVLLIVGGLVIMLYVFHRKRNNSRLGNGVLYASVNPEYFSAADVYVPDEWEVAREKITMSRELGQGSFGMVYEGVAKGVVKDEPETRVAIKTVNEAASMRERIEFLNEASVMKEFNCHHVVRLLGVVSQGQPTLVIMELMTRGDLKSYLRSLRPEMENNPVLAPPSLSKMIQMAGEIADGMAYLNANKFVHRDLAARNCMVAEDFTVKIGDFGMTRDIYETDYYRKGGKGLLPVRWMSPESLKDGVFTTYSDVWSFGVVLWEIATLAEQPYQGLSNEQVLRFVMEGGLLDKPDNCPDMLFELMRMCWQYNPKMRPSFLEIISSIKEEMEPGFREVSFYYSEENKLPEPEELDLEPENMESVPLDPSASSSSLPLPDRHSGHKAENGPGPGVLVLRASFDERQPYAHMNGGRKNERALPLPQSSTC

Row | Compound | pIC50 [1] | pIC50 [2] | pIC50 (MCF7 [3]) | pIC50 (cells) | CC50 at 72 h [4] [mM] | Activity (MCF7 [5]) | pIC50 [6]
1 | COc1ccccc1N1CCN(CC(O)c2ccc(Br)cc2)CC1 (stereo not given) | 5.38 | 5.64 | 5.92 | 5.59 | – | – | –
2 | OC(CN1CCN(c2cccc(Cl)c2Cl)CC1)c1ccc(Br)cc1 (stereo not given) | 5.61 | 5.69 | 5.97 | 5.72 | – | – | –
3 | OC(CN1CCN(c2cccc(Cl)c2)CC1)c1ccc(Br)cc1 (stereo not given) | 4.65 | 5.11 | 4.98 | 4.77 | – | – | –
4 | Cc1ccc(N2CCN(CC(O)c3ccc(Br)cc3)CC2)c(C)c1 (stereo not given) | 5.86 | 5.83 | 6.06 | 5.74 | – | – | –
5 | O=[N+]([O-])c1ccc(N2CCN(CC(O)c3ccc(Br)cc3)CC2)cc1 (stereo not given) | 5.74 | 5.82 | 5.88 | 5.66 | 1.6 | – | –
6 | OC(CN1CCN(c2ccc(F)cc2)CC1)c1ccc(Br)cc1 (stereo not given) | 4.99 | 5.09 | 4.94 | 5.34 | – | – | –
7 | OC(CN1CCN(c2ccccc2Cl)CC1)c1ccc(Br)cc1 (stereo not given) | 5.34 | 5.41 | 5.61 | 5.60 | – | – | –
8 | OC(CN1CCN(C(c2ccc(F)cc2)c2ccc(F)cc2)CC1)c1ccc(Br)cc1 (stereo not given) | 6.94 | 6.82 | 7.62 | 7.17 | – | Active | –
9 | OC(CN1CCN(Cc2ccccc2)CC1)c1ccc(Br)cc1 (stereo not given) | 5.43 | 5.45 | 5.54 | 5.57 | – | – | 6.25
10 | Cc1cc(N2CCOCC2)cc2[nH]c(-c3c(NC[C@@H](O)c4cccc(Cl)c4)cc[nH]c3=O)nc12 | 5.54 | 5.59 | 5.76 | 5.69 | 32 | – | –
11 | COc1cccc(N2CCN(CC(O)c3ccc(Br)cc3)CC2)c1 (stereo not given) | 5.48 | 5.54 | 5.84 | 5.69 | – | – | –
12 | OC(CN1CCN(c2ccccc2F)CC1)c1ccc(Br)cc1 (stereo not given) | 4.80 | 5.02 | 4.79 | 5.27 | – | – | –
13 | OC(CN1CCN(c2ccc(Cl)c(Cl)c2)CC1)c1ccc(Br)cc1 (stereo not given) | 5.67 | 5.78 | 6.11 | 5.72 | – | – | –
14 | COc1ccc(N2CCN(CC(O)c3ccc(Br)cc3)CC2)cc1 (stereo not given) | 5.46 | 5.55 | 5.87 | 5.59 | – | – | –
15 | OC(CN1CCN(c2cccc(C(F)(F)F)c2)CC1)c1ccc(Br)cc1 (stereo not given) | 5.68 | 5.92 | 6.07 | 6.02 | 6.6 | – | –
16 | OC(CN1CCN(c2ccccn2)CC1)c1ccc(Br)cc1 (stereo not given) | 5.24 | 5.21 | 5.47 | 5.18 | – | – | –
17 | OC(CN1CCN(C(c2ccccc2)c2ccccc2)CC1)c1ccc(Br)cc1 (stereo not given) | 6.60 | 6.87 | 7.43 | 6.95 | 2 | – | 7.47
18 | OC(CN1CCN(c2ccccc2)CC1)c1ccc(Br)cc1 (stereo not given) | 5.03 | 5.12 | 5.24 | 5.05 | 0.25 | – | –
